Here are results for one compound from patent US7279497B2, “Benzopyran derivatives substituted with secondary amines including imidazole, their preparation and pharmaceutical compositions containing them” (Korea Research Institute of Chemical Technology, priority 2002, dated 2007).

Data set [1] deals with HUVECs (Human umbilical vein endothelial cells). Briefly: Inhibitory effects on HUVEC tube formation.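 Further: from minus no inhibition up to plus-plus-plus complete inhibition versus vehicle.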 It is filed as cell-based. A digest of the protocol:
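HUVECs within passage 5 were plated on bFGF-reduced polymerized Matrigel and incubated with or without compound. Tube formation assessed as changes in cell morphology by phase-contrast microscopy and photography.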

In a further data set the test system is SPF SD rats. Particulars: rat, in vivo, po.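 Further: Six-week-old animals, two per group, followed across an observation period.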
The test system of the next data set is rat brain homogenate. The data set can be described thus: Inhibitory activity against iron-induced lipid peroxidation (MDA). The note with it: 30 μM, FeCl2 400 μm. It is filed as biochemical. The protocol:
In order to examine whether the compounds of the formula 1 suppress the iron-induced lipid peroxidation, experiments were conducted as follows.
The rat brain was homogenized in a Krebs buffer (15 mM HEPES, 10 mM glucose, 140 mM NaCl, 3.6 mM KCl, 1.5 mM CaCl2, 1.4 mM KH2PO4, 0.7 mM MgCl2, pH 7.4) and the supernatant separated by centrifugation at 12,000 rpm for 10 min was used for further experiments. FeCl2 was added to a final concentration of 400 μm in the brain homogenate which was then allowed to stand at 37° C. for 30 min. for the facilitation of oxidation. Each of the test compounds was added at a concentration of 30 μM and vehicle was used as a control.
Iron facilitates the oxidation of the brain homogenate to produce malondialdehyde (MDA), a lipid peroxidation product. Thus, the lipid peroxidation was determined by MDA quantification. The inhibitory effect of the test compounds against the lipid peroxidation was evaluated by calculating MDA reduction rate of the test compounds compared with that of the control group.
Typically, the MDA quantification is achieved by reacting samples with 2-thiobarbituric acid (TBA) and measuring the absorbance at 530 nm. However, this method is unsuitable to treat samples on a large scale because of a boiling step. Thus, in this experiment, N-methyl-2-phenylindole was used instead of TBA. […] Bioxytech^R LPO-586 Kit was used for MDA quantification.

Turning to `COC(OC)[C@@]1(C)Oc2ccc(N)cc2[C@@H](N(Cc2ncc[nH]2)c2ccc(C(F)(F)F)cc2)[C@@H]1O` [Example 25, (2S,3S,4R)-6-amino-3,4-dihydro-2-dimethoxymethyl-3-hydroxy-2-methyl-4-[N-(4-trifluoromethylphenyl)-N-(1H-imidazol-2-ylmethyl)amino]-2H-1-benzopyran], the Tube formation result in data set [1] (10 μM) and in data set [1] (100 μM) was “+/−” throughout. In addition, the “clinical symptoms, body weight and mortality” value in the data set with SPF SD rats was “no significant changes”. The “% Inhibition of lipid peroxidation by iron” value with rat brain homogenate worked out at 97%.
